Reference: patent US8859608B2, “Spiro amino compounds suitable for the treatment of inter alia sleep disorders and drug addiction” (Rottapharm Biotech S.R.L., priority 2009, dated 2014)

Tests used:
human OX1 receptor = target: T1, human OX1 receptor (Homo sapiens, UniProt O43613); test: FLIPR measurement of intracellular calcium, antagonistic activity at OX1; details: for selectivity against the OX1 receptor: OX1 versus OX2, from the pKb table; for Kb: pKb OX1, CHO cells with human recombinant OX1, activated with orexin-A 3 nM, 1 nM-1 μM range, modified Cheng Prusoff
T1 sequence (O43613 1-425): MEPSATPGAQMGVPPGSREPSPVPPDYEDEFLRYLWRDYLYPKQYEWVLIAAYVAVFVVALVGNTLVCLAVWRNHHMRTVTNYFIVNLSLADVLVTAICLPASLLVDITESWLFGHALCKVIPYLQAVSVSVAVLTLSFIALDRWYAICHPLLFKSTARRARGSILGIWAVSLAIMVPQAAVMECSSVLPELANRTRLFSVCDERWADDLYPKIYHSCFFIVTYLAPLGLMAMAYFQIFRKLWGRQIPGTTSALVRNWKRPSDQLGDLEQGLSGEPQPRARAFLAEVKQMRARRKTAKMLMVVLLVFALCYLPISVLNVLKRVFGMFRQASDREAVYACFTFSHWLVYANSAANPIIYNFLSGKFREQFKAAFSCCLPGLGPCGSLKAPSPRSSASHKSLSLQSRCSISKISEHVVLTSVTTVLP
Procedure: (§1) Thus the plate was loaded with the calcium dye (Fluo-4NW/probenecid in HBSS, Hepes 20 mM, pH 7,4; Invitrogen) at 37° C. for 60 min. Afterward the temperature was equilibrated at 22° C. for 15 min and the [Ca2+]i measured directly on the plate by using a fluorescent plate reader (CeliLux Perkin Elmer).
(§2) After 5 min CHO cells were activated with orexin-A, 3 nM while HEK-293 cells were activated with orexin-B, 10 nM.
(§3) The antagonistic activity has been expressed as pKb (co-logarithm of the apparent dissociation constant calculated by using the modified Cheng Prusoff equation).

human OX2 receptor = target: T2, human OX2 receptor (Homo sapiens, UniProt O43614); test: FLIPR measurement of intracellular calcium, antagonistic activity at OX2
T2 sequence (O43614 1-444): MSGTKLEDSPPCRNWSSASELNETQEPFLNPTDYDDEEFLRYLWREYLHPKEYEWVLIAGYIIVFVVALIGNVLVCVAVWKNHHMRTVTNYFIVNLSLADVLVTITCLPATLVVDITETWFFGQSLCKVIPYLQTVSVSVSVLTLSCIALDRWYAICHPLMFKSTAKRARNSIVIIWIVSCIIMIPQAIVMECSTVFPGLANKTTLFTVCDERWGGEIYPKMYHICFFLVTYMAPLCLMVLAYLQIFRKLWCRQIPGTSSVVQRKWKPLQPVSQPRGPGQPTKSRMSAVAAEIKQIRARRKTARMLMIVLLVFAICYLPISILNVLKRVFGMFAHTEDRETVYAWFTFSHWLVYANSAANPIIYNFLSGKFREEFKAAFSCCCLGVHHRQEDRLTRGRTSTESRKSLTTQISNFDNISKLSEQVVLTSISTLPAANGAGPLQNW
Procedure: as §1, §2, §3

Row | SMILES | selectivity against the OX1 receptor (human OX1 receptor) | Kb (human OX2 receptor) | Kb (human OX1 receptor)
1 | Cc1cccc(NCC2CC3(CCN2C(=O)c2nc(C)sc2-c2ccccc2)CC3)n1 (racemic) [Compound 1, (±) (2-methyl-5-phenylthiazol-4-yl)(5-((6-methylpyridin-2-ylamino)methyl)-6-azaspiro[2.5]octan-6-yl)methanone] | same behaviour | > 10000 nM | –
2 | Cc1nc(C(=O)N2CCC3(CC3)CC2CNc2ccc(C(F)(F)F)cn2)c(-c2ccccc2)s1 (racemic) [Compound 7, (±) (2-methyl-5-phenylthiazol-4-yl)(5-((5-(trifluoromethyl)pyridin-2-ylamino)methyl)-6-azaspiro[2.5]octan-6-yl)methanone] | same behaviour | > 10000 nM | 25.1 nM
3 | O=C(c1ccccc1OCC1CC1)N1CCC2(CC2)CC1CNc1ccc(Cl)cn1 (racemic) [Compound 9, (±) (5-((5-chloropyridin-2-ylamino)methyl)-6-azaspiro[2.5]octan-6-yl)(2-(cyclopropylmethoxy)phenyl)methanone] | – | > 10000 nM | 100 nM
4 | COC(=O)c1cc(Cl)ccc1NCC1CC2(CCN1C(=O)c1nc(C)sc1-c1ccc(F)cc1)CC2 (racemic) [Compound 15, (±)methyl 5-chloro-2-((6-(5-(4-fluorophenyl)-2-methylthiazole-4-carbonyl)-6-azaspiro[2.5]octan-5-yl)methylamino)benzoate] | – | > 10000 nM | 126 nM
5 | Cc1nc(C(=O)N2CCC3(CC3)CC2CNc2ccc(Cl)cn2)c(-c2ccccc2)s1 (single isomer, unassigned) [Compound 5, (5-((5-chloropyridin-2-ylamino)methyl)-6-azaspiro[2.5]octan-6-yl)(2-methyl-5-phenylthiazol-4-yl)methanone] | – | > 1000 nM | 12.6 nM
6 | Cc1nc(C(=O)N2CCC3(CC3)CC2CNc2ccc(C(F)(F)F)cn2)c(-c2ccccc2)s1 (single isomer, unassigned) [Compound 8, (2-methyl-5-phenylthiazol-4-yl)(5-((5-(trifluoromethyl)pyridin-2-ylamino)methyl)-6-azaspiro[2.5]octan-6-yl)methanone] | same behaviour | > 10000 nM | 20 nM
7 | Cc1nc(C(=O)N2CCC3(CC3)C[C@H]2CNc2cccc(Cl)n2)c(-c2ccccc2)s1 [Compound 17, (S)-(5-(((6-chloropyridin-2-yl)amino)methyl)-6-azaspiro[2.5]octan-6-yl)(2-methyl-5-phenylthiazol-4-yl)methanone] | – | > 10000 nM | 31.6 nM
8 | Cc1nc(C(=O)N2CCC3(CC3)C[C@H]2CNc2nc(F)cc(F)n2)c(-c2ccccc2)s1 [Compound 24, (S)-(5-(((4,6-difluoropyrimidin-2-yl)amino)methyl)-6-azaspiro[2.5]octan-6-yl)(2-methyl-5-phenylthiazol-4-yl)methanone] | – | – | 100 nM
9 | Cc1nc(C(=O)N2CCC3(CC3)C[C@H]2CNc2cccc(F)n2)c(-c2ccccc2)s1 [Compound 25, (S)-(5-(((6-fluoropyridin-2-yl)amino)methyl)-6-azaspiro[2.5]octan-6-yl)(2-methyl-5-phenylthiazol-4-yl)methanone] | – | – | 39.8 nM
10 | Cc1ccc(-n2nccn2)c(C(=O)N2CCC3(CC3)C[C@H]2CNc2ccc(C(F)(F)F)cn2)c1 [Compound 26, (S)-(5-methyl-2-(2H-1,2,3-triazol-2-yl)phenyl)(5-(((5-(trifluoromethyl)pyridin-2-yl)amino)methyl)-6-azaspiro[2.5]octan-6-yl)methanone] | – | – | 25.1 nM
11 | Cc1ccc(-c2ncccn2)c(C(=O)N2CCC3(CC3)C[C@H]2CNc2ccc(C(F)(F)F)cn2)c1 [Compound 27, (S)-(5-methyl-2-(pyrimidin-2-yl)phenyl)(5-(((5-(trifluoromethyl)pyridin-2-yl)amino)methyl)-6-azaspiro[2.5]octan-6-yl)methanone] | – | – | 12.6 nM
12 | O=C(c1ccccc1-n1nccn1)N1CCC2(CC2)C[C@H]1CNc1ccc(Cl)cn1 [Compound 28, (S)-(2-(2H-1,2,3-triazol-2-yl)phenyl)(5-(((5-chloropyridin-2-yl)amino)methyl)-6-azaspiro[2.5]octan-6-yl)methanone] | – | – | 25.1 nM
13 | O=C(c1cc(F)ccc1-n1nccn1)N1CCC2(CC2)C[C@H]1CNc1ccc(Cl)cn1 [Compound 29, (S)-(5-(((5-chloropyridin-2-yl)amino)methyl)-6-azaspiro[2.5]octan-6-yl)(5-fluoro-2-(2H-1,2,3-triazol-2-yl)phenyl)methanone] | – | – | 31.6 nM
14 | O=C(c1ccccc1-c1cnccn1)N1CCC2(CC2)C[C@H]1CNc1ccc(Cl)cn1 [Compound 30, (S)-(5-(((5-chloropyridin-2-yl)amino)methyl)-6-azaspiro[2.5]octan-6-yl)(2-(pyrazin-2-yl)phenyl)methanone] | – | – | 63.1 nM
15 | O=C(c1c(F)cccc1-n1nccn1)N1CCC2(CC2)C[C@H]1CNc1ccc(Cl)cn1 [Compound 31, (S)-(5-(((5-chloropyridin-2-yl)amino)methyl)-6-azaspiro[2.5]octan-6-yl)(2-fluoro-6-(2H-1,2,3-triazol-2-yl)phenyl)methanone] | – | – | 15.8 nM
16 | O=C(c1cc(F)ccc1-c1ccccn1)N1CCC2(CC2)C[C@H]1CNc1ccc(Cl)cn1 [Compound 32, (S)-(5-(((5-chloropyridin-2-yl)amino)methyl)-6-azaspiro[2.5]octan-6-yl)(5-fluoro-2-(pyridin-2-yl)phenyl)methanone] | – | – | 63.1 nM
17 | Cc1ccc(-c2ccccn2)c(C(=O)N2CCC3(CC3)C[C@H]2CNc2ccc(Cl)cn2)c1 [Compound 33, (S)-(5-(((5-chloropyridin-2-yl)amino)methyl)-6-azaspiro[2.5]octan-6-yl)(5-methyl-2-(pyridin-2-yl)phenyl)methanone] | – | – | 1.58 nM
18 | O=C(c1c(F)cccc1-c1ccccn1)N1CCC2(CC2)C[C@H]1CNc1ccc(Cl)cn1 [Compound 34, (S)-(5-(((5-chloropyridin-2-yl)amino)methyl)-6-azaspiro[2.5]octan-6-yl)(2-fluoro-6-(pyridin-2-yl)phenyl)methanone] | – | – | 20 nM
19 | Cc1cc(C)nc(NC[C@@H]2CC3(CCN2C(=O)c2cc(Cl)ccc2Cl)CC3)n1 [Compound 37, (S)-(2,5-dichlorophenyl)(5-(((4,6-dimethylpyrimidin-2-yl)amino)methyl)-6-azaspiro[2.5]octan-6-yl)methanone] | – | > 10000 nM | –
20 | O=C(c1ccccc1-c1ccccc1)N1CCC2(CC2)C[C@H]1CNc1ccc(Cl)cn1 [Compound 38, (S)-[1,1′-biphenyl]-2-yl(5-(((5-chloropyridin-2-yl)amino)methyl)-6-azaspiro[2.5]octan-6-yl)methanone] | – | – | 20 nM
21 | O=C(c1ccccc1-c1ncccn1)N1CCC2(CC2)C[C@H]1CNc1ccc(Cl)cn1 [Compound 40, (S)-(5-(((5-chloropyridin-2-yl)amino)methyl)-6-azaspiro[2.5]octan-6-yl)(2-(pyrimidin-2-yl)phenyl)methanone] | – | – | 31.6 nM
22 | Cc1ccc(-c2ncccn2)c(C(=O)N2CCC3(CC3)C[C@H]2CNc2cccc(Cl)n2)c1 [Compound 41, (S)-(5-(((6-chloropyridin-2-yl)amino)methyl)-6-azaspiro[2.5]octan-6-yl)(5-methyl-2-(pyrimidin-2-yl)phenyl)methanone] | – | – | 63.1 nM
23 | Cc1ccc(-c2cnccn2)c(C(=O)N2CCC3(CC3)C[C@H]2CNc2cccc(Cl)n2)c1 [Compound 42, (S)-(5-(((6-chloropyridin-2-yl)amino)methyl)-6-azaspiro[2.5]octan-6-yl)(5-methyl-2-(pyrazin-2-yl)phenyl)methanone] | – | – | 25.1 nM
24 | Cc1ccc(-c2cnccn2)c(C(=O)N2CCC3(CC3)C[C@H]2CNc2cccc(C(F)(F)F)n2)c1 [Compound 43, (S)-(5-methyl-2-(pyrazin-2-yl)phenyl)(5-(((6-(trifluoromethyl)pyridin-2-yl)amino)methyl)-6-azaspiro[2.5]octan-6-yl)methanone] | – | – | 10 nM
25 | O=C(c1cc(F)ccc1-c1ncccn1)N1CCC2(CC2)C[C@H]1CNc1ccc(Cl)cn1 [Compound 44, (S)-(5-(((5-chloropyridin-2-yl)amino)methyl)-6-azaspiro[2.5]octan-6-yl)(5-fluoro-2-(pyrimidin-2-yl)phenyl)methanone] | – | – | 15.8 nM
26 | O=C(c1c(F)cccc1-c1ncccn1)N1CCC2(CC2)C[C@H]1CNc1ccc(Cl)cn1 [Compound 45, (S)-(5-(((5-chloropyridin-2-yl)amino)methyl)-6-azaspiro[2.5]octan-6-yl)(2-fluoro-6-(pyrimidin-2-yl)phenyl)methanone] | – | – | 10 nM
